From patent publication US20180213779A1, “PESTICIDALLY ACTIVE HETEROCYCLIC DERIVATIVES WITH SULPHUR CONTAINING SUBSTITUENTS” (SYNGENTA PARTICIPATIONS AG, priority 2015, published 2018)

Legend:
[1] = tested on: Plutella xylostella (Diamond Back Moth); test: Example B11: Activity against Plutella xylostella (artificial diet, 24-well, L2 larvae); assay type: in vivo; settings: 120 h, application rate of 200 ppm, 5 days after infestation, read-out: effect in at least one of the two categories (mortality or growth inhibition)
Description: Example B11: Activity Against Plutella xylostella (Diamond Back Moth)
(§1) 24-well microtiter plates with artificial diet were treated with aqueous test solutions prepared from 10′000 ppm DMSO stock solutions by pipetting. After drying, the plates were infested with L2 larvae (10 to 15 per well). The samples were assessed for mortality and growth inhibition in comparison to untreated samples 5 days after infestation.

[2] = tested on: Diabrotica balteata (Corn Root Worm); test: Example B6: Activity against Diabrotica balteata (sprayed maize sprouts); assay type: in vivo; settings: 96 h, application rate of 200 ppm, L2 larvae, 4 days after infestation, read-out: effect in at least one of the two categories (mortality or growth inhibition)
Description: Example B6: Activity Against Diabrotica Balteata (Corn Root Worm)
as §1, with “Maize sprouts placed onto an agar layer in 24-well” for “24-well”, “plates” for “plates with artificial diet”, “spraying.” for “pipetting.”, “(6” for “(10”, “10” for “15”, “4” for “5”

[3] = tested on: Plutella xylostella (Diamond-Back Moth); test: Example B3: Plutella xylostella larvicide, feeding/contact activity, preventative (artificial diet, 96-well); assay type: in vivo; settings: 216 h, application rate of 500 ppm, mortality assessed 9 days after treatment
Description: Example B3: Plutella xylostella (Diamond-Back Moth) larvicide, feeding/contact activity, preventative Artificial diet was dispensed into a 96-well microtiter plate and treated with aqueous test solutions prepared from 10′000 ppm DMSO stock solutions. Eggs were suspended above the treated diet and first instar larvae hatched onto the diet. Mortality was assessed 9 days after treatment.

[4] = tested on: Myzus persicae (Green Peach Aphid); test: Example B8: Activity against Myzus persicae (sprayed sunflower leaf discs); assay type: in vivo; settings: foliar, 144 h, application rate of 200 ppm, mixed ages, 6 days after infestation
Description: Example B8: Activity Against Myzus persicae (Green Peach Aphid)
Sunflower leaf discs were placed onto agar in a 24-well microtiter plate and sprayed with aqueous test solutions prepared from 10′000 ppm DMSO stock solutions. After drying, the leaf discs were infested with an aphid population of mixed ages. The samples were assessed for mortality 6 days after infestation.

[5] = tested on: Euschistus heros (Neotropical Brown Stink Bug); test: Example B7: Activity against Euschistus heros (sprayed soybean leaves); assay type: in vivo; settings: 120 h, application rate of 200 ppm, N2 nymphs, 5 days after infestation, read-out: effect in at least one of the two categories (mortality or growth inhibition)
Description: Example B7: Activity Against Euschistus heros (Neotropical Brown Stink Bug)
Soybean leaves on agar in 24-well microtiter plates were sprayed with aqueous test solutions prepared from 10′000 ppm DMSO stock solutions. After drying the leaves were infested with N2 nymphs. The samples were assessed for mortality and growth inhibition in comparison to untreated samples 5 days after infestation.

[6] = tested on: Spodoptera littoralis (Egyptian Cotton Leaf Worm); test: Example B5: Activity against Spodoptera littoralis (systemic, lettuce grown on treated agar); assay type: in vivo; settings: 144 h, test rate of 12.5 ppm, 6 days after infestation, uptake by lettuce roots, read-out: effect in at least one of the three categories (mortality, anti-feeding, or growth inhibition)
Source text: Example B5: Activity Against Spodoptera littoralis (Egyptian Cotton Leaf Worm)
Test compounds were applied by pipette from 10′000 ppm DMSO stock solutions into 24-well plates and mixed with agar. Lettuce seeds were placed onto the agar and the multi well plate was closed by another plate which contained also agar. After 7 days the compound was absorbed by the roots and the lettuce grew into the lid plate. The lettuce leaves were then cut off into the lid plate. Spodoptera eggs were pipetted through a plastic stencil onto a humid gel blotting paper and the lid plate was closed with it. The samples were assessed for mortality, anti-feedant effect and growth inhibition in comparison to untreated samples 6 days after infestation.

[7] = tested on: Spodoptera littoralis (Egyptian Cotton Leaf Worm); test: Example B4: Activity against Spodoptera littoralis (sprayed cotton leaf discs); assay type: in vivo; settings: foliar, 72 h, application rate of 200 ppm, L1 larvae, 3 days after infestation
Description: Example B4: Activity Against Spodoptera littoralis (Egyptian Cotton Leaf Worm)
Cotton leaf discs were placed on agar in 24-well microtiter plates and sprayed with aqueous test solutions prepared from 10′000 ppm DMSO stock solutions. After drying the leaf discs were infested with five L1 larvae. The samples were assessed for mortality, anti-feedant effect, and growth inhibition in comparison to untreated samples 3 days after infestation. Control of Spodoptera littoralis by a test sample is given when at least one of the categories mortality, anti-feedant effect, and growth inhibition is higher than the untreated sample.

[8] = tested on: Myzus persicae (Green Peach Aphid); test: Example B9: Activity against Myzus persicae (roots of pea seedlings in test solutions); assay type: in vivo; settings: 144 h, test rate of 24 ppm, mixed ages, 6 days after placing seedlings into test solutions
Description: Example B9: Activity Against Myzus persicae (Green Peach Aphid)
Roots of pea seedlings infested with an aphid population of mixed ages were placed directly into aqueous test solutions prepared from 10′000 DMSO stock solutions. The samples were assessed for mortality 6 days after placing seedlings into test solutions.

melting point [°C] | Structure (SMILES) | effect (mortality or growth inhibition) at 200 ppm [2] [%] | pest or weed control at 500 ppm [3] [%] | also measured
 | CCSc1cccnc1-c1cn(-c2cccc(C(F)(F)F)c2)nn1 [Compound P14] | ≥ 80 | ≥ 70 | percent effect (mortality or growth inhibition) at 200 ppm [1]: ≥ 80%; mortality at 200 ppm [4]: ≥ 80%; percent effect (mortality or growth inhibition) at 200 ppm [5]: ≥ 80%
 | CCSc1cccnc1-c1cn(-c2ccc(C(F)(F)F)cc2)nn1 [Compound P16, 3-ethylsulfanyl-2-[1-[4-(trifluoromethyl)phenyl]triazol-4-yl]pyridine] |  | ≥ 70 | percent effect (mortality or growth inhibition) at 200 ppm [1]: ≥ 80%
 | CCSc1cc(C(F)(F)F)cnc1-c1cn(-c2cncc(C(F)(F)F)c2)nn1 [Compound P21] | ≥ 80 | ≥ 70 | 
 | CCS(=O)(=O)c1cc(C(F)(F)F)cnc1-c1cn(-c2cncc(C(F)(F)F)c2)nn1 [Compound P23] | ≥ 80 | ≥ 70 | percent effect (mortality, anti-feeding or growth inhibition) at 12.5 ppm [6]: ≥ 80%; percent control (mortality, anti-feedant effect or growth inhibition) at 200 ppm [7]: ≥ 80%
238 to 240 | CCS(=O)(=O)c1ccc(-n2cncn2)nc1-c1cc(-c2cc(C(F)(F)F)ccn2)n(C)n1 [Compound P31] |  |  | 
125 to 126 | CCSc1ccc(Cl)nc1-c1cc(-c2cncc(C(F)(F)F)c2)n(C)n1 [Compound P36] |  |  | 
138 to 140 | CCSc1ccc(Cl)nc1-c1cc(-c2cc(C(F)(F)F)ccn2)n(C)n1 [Compound P28] |  |  | 
175 to 177 | CCS(=O)(=O)c1ccc(-n2cncn2)nc1-c1cc(-c2ccc(C(F)(F)F)nc2)n(C)n1 [Compound P35, 3-ethylsulfonyl-2-[1-methyl-5-[6-(trifluoromethyl)-3-pyridyl]pyrazol-3-yl]-6-(1,2,4-triazol-1-yl)pyridine] |  |  | 
 | CCSc1cccnc1-c1cn(-c2ccc(C(F)(F)F)nc2)nn1 [Compound P24] | ≥ 80 | ≥ 70 | 
 | CCS(=O)(=O)c1cc(C(F)(F)F)ccc1-c1nnc(-c2ccc(C(F)(F)F)nc2)o1 [Compound P7] |  | ≥ 70 | 
 | CCS(=O)(=O)c1cccnc1-c1cn(-c2cncc(C(F)(F)F)c2)nn1 [Compound P20] | ≥ 80 | ≥ 70 | mortality at 24 ppm [8]: ≥ 80%; percent effect (mortality or growth inhibition) at 200 ppm [1]: ≥ 80%; percent effect (mortality, anti-feeding or growth inhibition) at 12.5 ppm [6]: ≥ 80%; mortality at 200 ppm [4]: ≥ 80%; percent control (mortality, anti-feedant effect or growth inhibition) at 200 ppm [7]: ≥ 80%
 | CCS(=O)(=O)c1cc(C(F)(F)F)cnc1-c1noc(-c2ccc(C(F)(F)F)cc2)c1C [Compound P8] |  | ≥ 70 | 
 | CCS(=O)(=O)c1cccnc1-c1cn(-c2ccc(C(F)(F)F)nc2)nn1 [Compound P25] | ≥ 80 | ≥ 70 | mortality at 24 ppm [8]: ≥ 80%; percent effect (mortality or growth inhibition) at 200 ppm [1]: ≥ 80%; percent effect (mortality or growth inhibition) at 200 ppm [5]: ≥ 80%
198 to 200 | CCS(=O)(=O)c1ccc(Cl)nc1-c1cc(-c2ccc(C(F)(F)F)nc2)n(C)n1 [Compound P33, 6-chloro-3-ethylsulfonyl-2-[1-methyl-5-[6-(trifluoromethyl)-3-pyridyl]pyrazol-3-yl]pyridine] |  |  | 
 | CCS(=O)(=O)c1cc(C(F)(F)F)cnc1-c1nnc(-c2cc(C(F)(F)F)ccn2)o1 [Compound P5, 2-[3-ethylsulfonyl-5-(trifluoromethyl)-2-pyridyl]-5-[4-(trifluoromethyl)-2-pyridyl]-1,3,4-oxadiazole] | ≥ 80 |  | 
171 to 173 | CCS(=O)(=O)c1cccnc1-c1cc(-c2cc(C(F)(F)F)ccn2)n(C)n1 [Compound P30] |  |  | 
 | CCS(=O)(=O)c1cccnc1-c1cn(-c2cccc(C(F)(F)F)c2)nn1 [Compound P15] | ≥ 80 | ≥ 70 | percent effect (mortality or growth inhibition) at 200 ppm [1]: ≥ 80%; percent effect (mortality, anti-feeding or growth inhibition) at 12.5 ppm [6]: ≥ 80%; mortality at 200 ppm [4]: ≥ 80%; percent control (mortality, anti-feedant effect or growth inhibition) at 200 ppm [7]: ≥ 80%; percent effect (mortality or growth inhibition) at 200 ppm [5]: ≥ 80%
 | CCS(=O)(=O)c1cc(C(F)(F)F)cnc1-c1nnc(-c2ccc(C(F)(F)F)cc2)o1 [Compound P3] |  |  | percent control (mortality, anti-feedant effect or growth inhibition) at 200 ppm [7]: ≥ 80%
152 to 153 | CCS(=O)(=O)c1ccc(Cl)nc1-c1cc(-c2cncc(C(F)(F)F)c2)n(C)n1 [Compound P37] |  |  | 
212 to 213 | CCS(=O)(=O)c1cc(C(F)(F)F)cnc1-c1cn(-c2ccc(C(F)(F)F)cc2)nn1 [Compound P2, 3-(ethylsulfonyl)-5-(trifluoromethyl)-2-(1-(4-(trifluoromethyl)phenyl)-1H-1,2,3-triazol-4-yl)pyridine] |  |  | 
235 to 237 | CCS(=O)(=O)c1ccc(-n2cncn2)nc1-c1cc(-c2cncc(C(F)(F)F)c2)n(C)n1 [Compound P39] |  |  | 
255 to 257 | CCS(=O)(=O)c1ccc(Cl)nc1-c1cc(-c2cc(C(F)(F)F)ccn2)n(C)n1 [Compound P29] |  |  | 
160 to 162 | CCS(=O)(=O)c1cccnc1-c1cc(-c2ccc(C(F)(F)F)nc2)n(C)n1 [Compound P34, 3-ethylsulfonyl-2-[1-methyl-5-[6-(trifluoromethyl)-3-pyridyl]pyrazol-3-yl]pyridine] |  |  | 
136 to 138 | CCSc1ccc(Cl)nc1-c1cc(-c2ccc(C(F)(F)F)nc2)n(C)n1 [Compound P32, 6-chloro-3-ethylsulfanyl-2-[1-methyl-5-[6-(trifluoromethyl)-3-pyridyl]pyrazol-3-yl]pyridine] |  |  | 
 | CCS(=O)(=O)c1cccnc1-c1cn(-c2ccc(C(F)(F)F)cc2)nn1 [Compound P17, 3-ethylsulfonyl-2-[1-[4-(trifluoromethyl)phenyl]triazol-4-yl]pyridine] | ≥ 80 | ≥ 70 | percent effect (mortality or growth inhibition) at 200 ppm [1]: ≥ 80%; percent control (mortality, anti-feedant effect or growth inhibition) at 200 ppm [7]: ≥ 80%; percent effect (mortality or growth inhibition) at 200 ppm [5]: ≥ 80%
145 to 146 | CCSc1cc(C(F)(F)F)cnc1-c1cc(-c2ccc(C(F)(F)F)cc2)on1 [Compound P11, 3-(3-ethylsulfanyl-5-(trifluoromethyl)pyridin-2-yl)-5-(4-(trifluoromethyl)phenyl)-isoxazole] |  |  | 
 | CCS(=O)(=O)c1cc(-c2ccc(Cl)cc2)cnc1-c1cn(-c2cccc(C(F)(F)F)c2)nn1 [Compound P13, 5-(4-chlorophenyl)-3-ethylsulfonyl-2-[1-[3-(trifluoromethyl)phenyl]triazol-4-yl]pyridine] | ≥ 80 | ≥ 70 | percent effect (mortality or growth inhibition) at 200 ppm [1]: ≥ 80%; percent control (mortality, anti-feedant effect or growth inhibition) at 200 ppm [7]: ≥ 80%
 | CCS(=O)(=O)c1cc(C(F)(F)F)cnc1-c1cn(-c2ccc(C(F)(F)F)nc2)nn1 [Compound P22] | ≥ 80 | ≥ 70 | percent effect (mortality or growth inhibition) at 200 ppm [1]: ≥ 80%; percent control (mortality, anti-feedant effect or growth inhibition) at 200 ppm [7]: ≥ 80%
